# Measured values from US6737383B1, “Herbicidal oxadiazolidines” (priority 1999, dated 2004).
# Assays:
# Settings in all cases: Preemergence, 0 to 100 scale, 0 no injury, 100 complete control
# [1] = system: tall mallow; experiment: Test D tall mallow; format: in vivo, Malva sylvestris
# Procedure, shortened: (§1)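 Visual injury ratings, 0 = no injury to 100 = complete control, taken 14 to 21 days after treatment. Test chemicals were in a surfactant-containing non-phytotoxic solvent; preemergence treatments went onto the sandy loam surface of seeded greenhouse pots within one day of sowing.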
# [2] = system: goosegrass; experiment: Test D goosegrass; format: in vivo, Eleusine indica
# Source text: (§2) Seeds, tubers, or plant parts of Alexandergrass (Brachiaria plantaginea), bermuda-grass (Cynodon dactylon), common pursiane (Portulaca oleracea), common ragweed (Ambrosia elatior), common groundsel (Senecio vulgaris), dallisgrass (Paspalum dilatatum), goosegrass (Eleusine indica), guineagrass (Panicum maximum), itchgrass (Rottboellia exaltata), Johnson grass (Sorghum halepense), large crabgrass (Digitaria sanguinalis), pitted morningglory (Ipomoea lacunosa), purple nutsedge (Cyperus rotundus), sandbur (Cenchrus echinatus), sourgrass (Trichachne insularis), Spanishneedles (Bidens bipinnata), surinam grass (Brachiaria decumbens) and tall mallow (Malva sylvestris) were planted into greenhouse pots of flats containing greenhouse planting medium. Plant species were grown in separate pots or individual compartments. Preemergence applications were made within one day of planting the seed or plant part.
# (§3) Test chemicals were formulated in a non-phytotoxic solvent mixture which included a surfactant and applied preemergence to the surface of the pot containing seeds in a sandy loam soil. Untreated control pots and treated pots were placed in the greenhouse for growth and visually evaluated for injury 14 to 21 days after herbicide application. Plant response ratings, summarized in Table C, are based on a 0 to 100 scale where 0 is no injury and 100 is complete control. A dash (−) response means no test result.
# [3] = system: sandbur; experiment: Test D sandbur; format: in vivo, Cenchrus echinatus
# Source text: as §2, §3
# [4] = system: guineagrass; experiment: Test D guineagrass; format: in vivo, Panicum maximum
# Procedure, shortened: as §1
# [5] = system: large crabgrass; experiment: Test D large crabgrass; format: in vivo, Digitaria sanguinalis
# Source text: as §2, §3
# [6] = system: dallisgrass; experiment: Test D dallisgrass; format: in vivo, Paspalum dilatatum
# Procedure, shortened: as §1
# [7] = system: common ragweed; experiment: Test D common ragweed; format: in vivo, Ambrosia elatior
# Procedure, shortened: as §1
# [8] = system: itchgrass; experiment: Test D itchgrass; format: in vivo, Rottboellia exaltata
# Procedure, shortened: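 Scoring used a 0–100 visual injury scale, with 0 meaning no effect and 100 complete control, assessed 14–21 days after application alongside untreated pots. Preemergence treatments went onto sandy loam surfaces of separately potted seeds within a day of sowing.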
# [9] = system: pitted morningglory; experiment: Test D pitted morningglory; format: in vivo, Ipomoea lacunosa
# Source text: as §2
# as §3, with “Plant response ratings, summarized in Table C, are based on a 0 to 100 scale where 0 is no injury and 100 is complete control.” left out
# [10] = system: common pursiane; experiment: Test D common purslane; format: in vivo, Portulaca oleracea
# Source text: as §2, §3
# [11] = system: Johnson grass; experiment: Test D Johnson grass; format: in vivo, Sorghum halepense
# Source text: as §2, §3
# [12] = system: purple nutsedge; experiment: Test D purple nutsedge; format: in vivo, Cyperus rotundus
# Procedure, shortened: as §1
# [13] = system: Alexandergrass; experiment: Test D Alexandergrass; format: in vivo, Brachiaria plantaginea
# Procedure, shortened: as §1
# [14] = system: bermuda-grass; experiment: Test D bermudagrass; format: in vivo, Cynodon dactylon
# Procedure, shortened: as §1
# [15] = system: Spanishneedles; experiment: Test D Spanishneedles; format: in vivo, Bidens bipinnata
# Source text: as §2, §3
# [16] = system: surinam grass; experiment: Test D surinam grass; format: in vivo, Brachiaria decumbens
# Source text: as §2, §3
# [17] = system: common groundsel; experiment: Test D common groundsel; format: in vivo, Senecio vulgaris
# Procedure, shortened: as §1
structure (smiles),measurement,setting,value
Cc1cccc(C)c1-n1c(=O)on(C(=O)N(c2ccc(F)cc2)C(C)C)c1=O [Compound 18],"Plant response rating, Tall Mallow",[1]; Rate 16 g/ha,0
same,"Plant response rating, Tall Mallow",[1]; Rate 32 g/ha,0
same,Tall Mallow plant response rating,[1]; Rate 64 g/ha,0
same,Tall Mallow plant response rating,[1]; Rate 125 g/ha,0
same,"Plant response rating, Goosegrass",[2]; Rate 16 g/ha,0
same,"Plant response rating, Goosegrass",[2]; Rate 32 g/ha,0
same,"Plant response rating, Goosegrass",[2]; Rate 64 g/ha,85
same,"Plant response rating, Goosegrass",[2]; Rate 125 g/ha,85
same,"Plant response rating, Sandbur",[3]; Rate 16 g/ha,0
same,"Plant response rating, Sandbur",[3]; Rate 32 g/ha,0
same,Sandbur plant response rating,[3]; Rate 64 g/ha,0
same,Sandbur plant response rating,[3]; Rate 125 g/ha,0
same,"Plant response rating, Guineagrass",[4]; Rate 16 g/ha,0
same,"Plant response rating, Guineagrass",[4]; Rate 32 g/ha,0
same,"Plant response rating, Guineagrass",[4]; Rate 64 g/ha,30
same,"Plant response rating, Guineagrass",[4]; Rate 125 g/ha,65
same,Plant response rating Large crabgrass,[5]; Rate 16 g/ha,0
same,Plant response rating Large crabgrass,[5]; Rate 32 g/ha,0
same,Plant response rating Large crabgrass,[5]; Rate 64 g/ha,98
same,Plant response rating Large crabgrass,[5]; Rate 125 g/ha,100
same,"Plant response rating, Dallisgrass",[6]; Rate 16 g/ha,0
same,"Plant response rating, Dallisgrass",[6]; Rate 32 g/ha,0
same,"Plant response rating, Dallisgrass",[6]; Rate 64 g/ha,85
same,"Plant response rating, Dallisgrass",[6]; Rate 125 g/ha,100
same,"Plant response rating, C. ragweed",[7]; Rate 16 g/ha,0
same,"Plant response rating, C. ragweed",[7]; Rate 32 g/ha,0
same,"Plant response rating, C. ragweed",[7]; Rate 64 g/ha,0
same,"Plant response rating, C. ragweed",[7]; Rate 125 g/ha,0
same,"Plant response rating, Itchgrass",[8]; Rate 16 g/ha,0
same,"Plant response rating, Itchgrass",[8]; Rate 32 g/ha,0
same,"Plant response rating, Itchgrass",[8]; Rate 64 g/ha,0
same,"Plant response rating, Itchgrass",[8]; Rate 125 g/ha,0
same,"Plant response rating, P. morninglory",[9]; Rate 16 g/ha,0
same,"Plant response rating, P. morninglory",[9]; Rate 32 g/ha,0
same,"Plant response rating, P. morninglory",[9]; Rate 64 g/ha,0
same,"Plant response rating, P. morninglory",[9]; Rate 125 g/ha,0
same,"Plant response rating, C. purslane",[10]; Rate 16 g/ha,0
same,"Plant response rating, C. purslane",[10]; Rate 32 g/ha,0
same,"Plant response rating, C. purslane",[10]; Rate 64 g/ha,0
same,"Plant response rating, C. purslane",[10]; Rate 125 g/ha,0
same,Plant response rating Johnsongrass,[11]; Rate 16 g/ha,0
same,Plant response rating Johnsongrass,[11]; Rate 32 g/ha,0
same,Plant response rating Johnsongrass,[11]; Rate 64 g/ha,0
same,Plant response rating Johnsongrass,[11]; Rate 125 g/ha,0
same,"Plant response rating, Purple nutsedge",[12]; Rate 16 g/ha,0
same,"Plant response rating, Purple nutsedge",[12]; Rate 32 g/ha,0
same,Purple nutsedge plant response rating,[12]; Rate 64 g/ha,0
same,Purple nutsedge plant response rating,[12]; Rate 125 g/ha,0
same,"Plant response rating, Alexandergrass",[13]; Rate 16 g/ha,0
same,"Plant response rating, Alexandergrass",[13]; Rate 32 g/ha,0
same,"Plant response rating, Alexandergrass",[13]; Rate 64 g/ha,0
same,"Plant response rating, Alexandergrass",[13]; Rate 125 g/ha,30
same,"Plant response rating, Bermudagrass",[14]; Rate 16 g/ha,40
same,"Plant response rating, Bermudagrass",[14]; Rate 32 g/ha,60
same,"Plant response rating, Bermudagrass",[14]; Rate 64 g/ha,85
same,"Plant response rating, Bermudagrass",[14]; Rate 125 g/ha,100
same,"Plant response rating, Spanishneedles",[15]; Rate 16 g/ha,0
same,"Plant response rating, Spanishneedles",[15]; Rate 32 g/ha,0
same,Spanishneedles plant response rating,[15]; Rate 64 g/ha,0
same,Spanishneedles plant response rating,[15]; Rate 125 g/ha,0
same,"Plant response rating, Surinam grass",[16]; Rate 16 g/ha,0
same,"Plant response rating, Surinam grass",[16]; Rate 32 g/ha,0
same,Surinam grass plant response rating,[16]; Rate 64 g/ha,0
same,Surinam grass plant response rating,[16]; Rate 125 g/ha,20
same,"Plant response rating, Com. groundsel",[17]; Rate 16 g/ha,0
same,"Plant response rating, Com. groundsel",[17]; Rate 32 g/ha,0
same,"Plant response rating, Com. groundsel",[17]; Rate 64 g/ha,0
same,"Plant response rating, Com. groundsel",[17]; Rate 125 g/ha,0
CCCn1c(=O)on(C(=O)N(c2ccc(F)cc2F)C(C)C)c1=O [Compound 130],Tall Mallow plant response rating,[1]; Rate 64 g/ha,85
same,"Plant response rating, Goosegrass",[2]; Rate 64 g/ha,100
same,Sandbur plant response rating,[3]; Rate 64 g/ha,100
same,"Plant response rating, Guineagrass",[4]; Rate 64 g/ha,100
same,Plant response rating Large crabgrass,[5]; Rate 64 g/ha,100
same,"Plant response rating, Dallisgrass",[6]; Rate 64 g/ha,100
same,"Plant response rating, C. ragweed",[7]; Rate 64 g/ha,30
same,"Plant response rating, Itchgrass",[8]; Rate 64 g/ha,80
same,"Plant response rating, P. morninglory",[9]; Rate 64 g/ha,65
same,"Plant response rating, C. purslane",[10]; Rate 64 g/ha,0
same,Plant response rating Johnsongrass,[11]; Rate 64 g/ha,65
same,Purple nutsedge plant response rating,[12]; Rate 64 g/ha,0
same,"Plant response rating, Alexandergrass",[13]; Rate 64 g/ha,98
same,"Plant response rating, Bermudagrass",[14]; Rate 64 g/ha,100
same,Spanishneedles plant response rating,[15]; Rate 64 g/ha,60
same,Surinam grass plant response rating,[16]; Rate 64 g/ha,80
same,"Plant response rating, Com. groundsel",[17]; Rate 64 g/ha,0
